Reference: PMC9046991, “Preparation, Characterization, and Cytoprotective Effects on HUVECs of Fourteen Novel Angiotensin-I-Converting Enzyme Inhibitory Peptides From Protein Hydrolysate of Tuna Processing By-Products” (Frontiers in Nutrition, 2022)
Read-outs that look alike come from different tables or passages of the source. Where a SMILES comes first, the peptide text is derived from it.

Experiments:
[1] = test system: HUVECs; assay: NO production in HUVECs; assay type: cell-based, human; conditions: 24 h, mean ± SD
From the text: NO and ET-1 productions in treated cells were obtained by employing human NO and ET-1 assay kits according to the manufacturers' protocol.

[2] = test system: HUVECs; assay: ET-1 secretion of HUVECs; assay type: cell-based, human; conditions: NE 0.5 μM, 24 h, mean ± SD
Procedure: The NO and ET-1 contents of HUVECs were determined after a 24 h treatment of ACEi peptides (STAP3, STAP4, STAP7, and STAP11, respectively) ([34]). HUVECs received the plating process in 6-well plates and the treating process with Cap (1 μM), NE (0.5 μM), designed concentrations of ACEi peptides (100, 200, and 400 μM) for 24 h, or treated with both NE (0.5 μM) and 200 μM ACEi peptides for 24 h. NO and ET-1 productions in treated cells were obtained by employing human NO and ET-1 assay kits according to the manufacturers' protocol.

[3] = test system: HUVECs; assay: HUVEC cell viability (MTT assay); assay type: cell-based, human
Procedure: After thawing, HUVECs were maintained in cultured flasks and cultured to confluence in DMEM containing 1% penicillin-streptomycin liquid, supplemented with 10% FBS. HUVECs received the culturing process at 37°C in a humidified 5% CO2 atmosphere ([34]).
The cytotoxicity of STAP3, STAP4, STAP7, and STAP11 on HUVECs was assessed using MTT assay on manufacturer's instructions ([34]). In brief, HUVECs received the incubation in 96-well plates at a density of 0.8 × 10^4 cells per well with 180 μl completed DMEM. Following the confluence of 50–60% in the 96-well plates, cells were treated with 20 μl peptides under-designed concentrations (100, 200, and 400 μM) and further cultured for 24 h at 37°C. Subsequently, cells were added with 20 μL MTT solutions (5 mg/mL) and incubated for 4 h. Finally, DMSO was added into each well and the absorbance (A) at 490 nm was determined. The cell viability was calculated as:
Cell viability(% of blank control)=(Aexperiment group/Acontrol group)×100.

[4] = test system: ACE; conditions: cited from earlier work; for IC50: data in the AHTPDB database, read-out: IC50 (ACEi ability)
From the text: Then, Ser residue, especially its hydroxyl group, should play a vital effect on the ACEi capability of STAP4, STAP7, and STAP11 ([67]). Yust et al. made clear that short peptide sequences ...

[5] = 100, 200 and 400 μM, 24 h, MTT, % of blank control

C[C@H](CS)C(=O)N1CCC[C@H]1C(=O)O [Cap, captopril]
NO level ([1]; Cap 1 μM, positive control): 65.96 ± 1.83 μmol/gprot

NC[C@H](O)c1ccc(O)c(O)c1 [NE, norepinephrine]
ET-1 secretion [2]: 140.23 ± 5.81 pg/mL | NO level ([1]; NE 0.5 μM): 24.25 ± 0.63 μmol/gprot

C[C@@H](O)[C@H](N)C(=O)N[C@@H](CCC(=O)O)C(=O)O [STAP1, Thr-Glu] (H-Thr-Glu-OH)
cell viability ([3]; 100 µM, SD): 108.52 ± 5.19%

CSCC[C@H](N)C(=O)N[C@@H](CCC(=O)O)C(=O)N[C@@H](CCCCN)C(=O)N[C@@H](CO)C(=O)O [STAP4, Met-Glu-Lys-Ser] (H-MEKS-OH)
cell viability [3, 5]: no significant influence on the proliferation of HUVECs

CSCC[C@H](N)C(=O)N[C@@H](CCCCN)C(=O)N[C@@H](CCCCN)C(=O)N[C@@H](CO)C(=O)O [STAP7, Met-Lys-Lys-Ser] (H-MKKS-OH)
cell viability [3, 5]: no significant influence on the proliferation of HUVECs

CC(C)C[C@H](N)C(=O)N1CCC[C@H]1C(=O)N[C@@H](CCCNC(=N)N)C(=O)N[C@@H](CO)C(=O)O [STAP11, Leu-Pro-Arg-Ser] (H-LPRS-OH)
cell viability ([3]; 400 µM, SD): 91.07 ± 1.36% | cell viability [3, 5]: no significant influence on the proliferation of HUVECs

EHPVL [ACEi peptide from stone fish]
IC50 (ACEi) ([4]; peptides from stone fish): 1.68 mg/mL

EVLIQ [ACEi peptide from stone fish]
IC50 (ACEi) ([4]; peptides from stone fish): 1.44 mg/mL

IRWCT [ACEi peptide in the AHTPDB database]
IC50 [4]: 1000 nM

LAPPTM [ACEi peptide from stone fish]
IC50 (ACEi) ([4]; peptides from stone fish): 1.31 mg/mL

LGPLGHQ [ACEi peptide from skate (Okamejei kenojei)]
IC50 (ACEi) ([4]; peptides from Okamejei kenojei): 3.49 mg/mL | IC50 (ACEi) ([4]; peptides from skate): 4.22 mg/mL

MIFPGAGGPEL [ACEi peptide in the AHTPDB database]
IC50 [4]: 30 nM

MVGSAPGVL [ACEi peptide from skate (Okamejei kenojei)]
IC50 (ACEi) ([4]; peptides from Okamejei kenojei): 3.09 mg/mL | IC50 (ACEi) ([4]; peptides from skate): 3.09 mg/mL

PYVRYL [ACEi peptide in the AHTPDB database]
IC50 [4]: 1900 nM

RYRP [ACEi peptide from protein hydrolysate of Saurida elongate]
IC50 (ACEi) ([4]; peptide from Saurida elongate): 3.35 mg/mL

VFPS [ACEi peptide in the AHTPDB database]
IC50 [4]: 460 nM

WRKER [ACEi peptide from Antarctic krill]
IC50 (ACEi) ([4]; peptides from Antarctic krill): 3.285 mg/mL
